Reference: PMC6277767, “Broad and Region-Specific Impacts of the Synthetic Cannabinoid CP 55,940 in Adolescent and Adult Female Mouse Brains” (Frontiers in Molecular Neuroscience, 2018)

Tested on: CD1 female mouse brain lipidome
Assay: Brain-region lipid levels (HPLC/MS/MS lipidomics) 2 h after single i.p. 3 mg/kg CP 55,940 vs vehicle
Format: in vivo
Parameters: N-arachidonoyl phenylalanine level, Mean / N-stearoyl tryptophan level, Mean / N-stearoyl proline level, Mean / N-stearoyl leucine level, Mean / N-stearoyl phenylalanine level, Mean / N-stearoyl serine level, Mean / N-stearoyl methionine level, Mean: unit: moles per gram
Procedure: The Bloomington Institutional Animal Care and Use Committee of Indiana University reviewed and approved the animal procedures. Female mice from the CD1 strain were utilized to match our study examining THC’s effects on the brain lipidome ([Leishman et al., 2018]). Mice were given a single i.p. injection of either 3 mg/kg CP or 1:1:18 cremophor:ethanol:saline vehicle (please refer to the section “3 mg/kg CP Is Relevant for Synthetic Cannabinoid Abuse and Has Stronger Effects on the Female Mouse Brain Lipidome During Adolescence” for a justification of dose and use of female mice). Three different age groups were given injections: PND 35 and PND 50 adolescents, and adult mice (PND 113). At least eight mice in each age group received CP and at least eight received vehicle. Matching the THC study time course ([Leishman et al., 2018]), mice were sacrificed via rapid decapitation 2 h after injection. Brains were immediately removed and flash-frozen in liquid nitrogen, and then stored at -80°C until dissections were performed. Brains were dissected on an ice-cold dissection plate into the following regions: STR, HIPP, CER, THAL, CTX, HYP, MID, and STEM. These abbreviations for these brain areas will be used exclusively when discussing the results generated by these specific dissections. Each dissected area was immediately placed in liquid nitrogen and then stored at -80°C until used for lipid extraction.
Tissue extracts were performed as previously described ([Bradshaw et al., 2006]; [Stuart et al., 2013]; [Raboune et al., 2014]; [Leishman et al., 2016a],[b], [2017], [2018]). First, samples were shock frozen in liquid nitrogen, weighed, and transferred to a centrifuge tube. The mass of the largest sample was multiplied by 50 to determine how many milliliters of HPLC-grade methanol (Fisher, Fair Lawn, NJ, United States) to add. Then, samples were spiked with 500 pmol deuterium-labeled NAGly (d8NAGly; Cayman Chemical, Ann Arbor, MI, United States). Samples were placed on ice in darkness for 2 h then individually homogenized and centrifuged at 19,000 × g for 20 min at 20°C. Supernatants were diluted with HPLC water (purified in house) to make a solution of 75% water, 25% supernatant. Lipids were partially purified on C18 solid phase extraction columns (Agilent, Palo Alto, CA, United States). A series of four elutions with 1.5 mL of 60%, 75%, 85%, and 100% methanol were collected ([Stuart et al., 2013]; [Leishman et al., 2016a],[b], [2018]).
As previously described ([Bradshaw et al., 2006]; [Tan et al., 2006]; [Smoum et al., 2010]; [Stuart et al., 2013]; [Tortoriello et al., 2013]; [Raboune et al., 2014]; [Leishman et al., 2016a],[b], [2017], [2018]), samples were analyzed using an Applied Biosystems API 3000 triple quadrupole mass spectrometer with electrospray ionization (Foster City, CA, United States). Using an Agilent XDB-C18 reversed phase analytical column and optimized mobile phase gradients, 20 μL from each elution were chromatographed. Two Shimadzu 10ADvp pumps (Columbia, MD, United States) provided the pressure for gradient elution. Mobile phase A: 20% methanol, 80% water (v/v) and 1 mM ammonium acetate (Sigma, St. Louis, MO, United States). Mobile phase B: 100% methanol, 1 mM ammonium acetate. Every method run began with 0% mobile phase B, reached 100% mobile phase B flowing at 0.2 mL/min, and gradually returned to 0% mobile phase B.
This screening library will be referred to as the lipidome when discussing data from this study. HPLC/MS/MS data were analyzed using Analyst software (Applied Biosystems) ([Bradshaw et al., 2006]; [Tan et al., 2006]; [Stuart et al., 2013]; [Tortoriello et al., 2013]; [Raboune et al., 2014]; [Leishman et al., 2016a],[b], [2017], [2018]). Chromatograms (Supplementary Figure 3) were generated by determining the retention time of analytes from the analytical column with a [M-1] or [M+1] parent peak and a fragmentation peak corresponding to the programmed values. […]

[1] = adult hypothalamus, 3mg/kg CP 55,940, p .001
[2] = adult hypothalamus, 3mg/kg CP 55,940, p .002
[3] = adult hypothalamus, 3mg/kg CP 55,940, p .005
[4] = adult hypothalamus, 3mg/kg CP 55,940, p .020
[5] = adult hypothalamus, 3mg/kg CP 55,940, p .036
[6] = adult hypothalamus, 3mg/kg CP 55,940, p .060
[7] = adult hypothalamus, 3mg/kg CP 55,940, p .073
[8] = adult midbrain, 3mg/kg CP 55,940
[9] = adult midbrain, 3mg/kg CP 55,940, p .000
[10] = adult midbrain, 3mg/kg CP 55,940, p .003
[11] = adult midbrain, 3mg/kg CP 55,940, p .023

In the case of CCCCCCC(C)(C)c1ccc([C@@H]2C[C@H](O)CC[C@H]2CCCO)c(O)c1 [CP 55,940], the “THC level, Mean” value (adult hypothalamus, 3 mg/kg CP 55,940) is reported as “BDL”, the “PGF2α Direction (relative to Veh)” value [1] is reported as “↓” and the “PGF2α Magnitude (x Veh level)” value [1] is reported as 0.79. For the same compound, the “phosphoLEA Direction (relative to Veh)” value [2] was “↓”, the “phosphoLEA Magnitude (x Veh level)” value [2] was 0.74 and the “6-ketoPGF1α Direction (relative to Veh)” value [3] was “↓”. For the same compound, the “6-ketoPGF1α Magnitude (x Veh level)” value [3] was 0.61, the “N-palmitoyl phenylalanine Direction (relative to Veh)” value [4] was “↑” and the “N-palmitoyl phenylalanine Magnitude (x Veh level)” value [4] was 1.86. The “PGE2 Direction (relative to Veh)” value [5] was “↑”, the “PGE2 Magnitude (x Veh level)” value [5] was 1.18 and the “N-arachidonoyl taurine Direction (relative to Veh)” value [6] was “↑”. For the same compound, the “N-arachidonoyl taurine Magnitude (x Veh level)” value [6] was 1.24, the “N-arachidonoyl GABA Direction (relative to Veh)” value [7] was “↓” and the “N-arachidonoyl GABA Magnitude (x Veh level)” value [7] was 0.83. The “2-arachidonoyl glycerol level, Mean” value [8] was 3.47E-09, the “2-linoleoyl glycerol level, Mean” value [8] was 3.28E-10 and the “2-oleoyl glycerol level, Mean” value [8] was 4.34E-09. The “2-palmitoyl glycerol level, Mean” value [8] was 8.64E-11, the “6-ketoPGF1α level, Mean” value [8] was 3.28E-11 and the “11-OH-THC level, Mean” value [8] was “BDL”. The “11-nor-9-carboxyTHC level, Mean” value [8] was “BDL”, the “Arachidonic acid level, Mean” value [8] was 5.39E-10 and the “Cannabidiol level, Mean” value [8] was “BDL”. For the same compound, the “Linoleic acid level, Mean” value [8] was 2.55E-10, the “N- stearoyl valine level, Mean” value [8] was 3.08E-14 and the “N-arachidonoyl GABA level, Mean” value [8] was 2.05E-11. The “N-arachidonoyl alanine level, Mean” value [8] was 8.5E-13, the “N-arachidonoyl dopamine level, Mean” value [8] was “BDL” and the “N-arachidonoyl ethanolamine level, Mean” value [8] was 1.42E-11. For the same compound, the “N-arachidonoyl glycine level, Mean” value [8] was 7.94E-13, the “N-arachidonoyl phenylalanine level, Mean” value [8] was 2.39E-13 and the “N-arachidonoyl proline level, Mean” value [8] was “BDL”. For the same compound, the “N-arachidonoyl serine level, Mean” value [8] was 4.34E-13, the “N-arachidonoyl taurine level, Mean” value [8] was 5.5E-11 and the “N-arachidonoyl tryptophan level, Mean” value [8] was “BDL”. The “N-arachidonoyl tyrosine level, Mean” value [8] was 1.09E-12, the “N-docosahexaenoyl GABA level, Mean” value [8] was 8.66E-12 and the “N-docosahexaenoyl ethanolamine level, Mean” value [8] was 3.34E-11. For the same compound, the “N-docosahexaenoyl glycine level, Mean” value [8] was 1.02E-13, the “N-docosahexaenoyl methionine level, Mean” value [8] was “BDL” and the “N-docosahexaenoyl phenylalanine level, Mean” value [8] was 1.11E-13. For the same compound, the “N-docosahexaenoyl proline level, Mean” value [8] was “BDL”, the “N-docosahexaenoyl tryptophan level, Mean” value [8] was “BDL” and the “N-linoleoyl alanine level, Mean” value [8] was 4.8E-13. For the same compound, the “N-linoleoyl ethanolamine level, Mean” value [8] was 1.5E-11, the “N-linoleoyl glycine level, Mean” value [8] was 4.47E-14 and the “N-linoleoyl methionine level, Mean” value [8] was “BDL”. For the same compound, the “N-linoleoyl proline level, Mean” value [8] was “BDL”, the “N-linoleoyl serine level, Mean” value [8] was 2.09E-11 and the “N-linoleoyl tryptophan level, Mean” value [8] was “BDL”. For the same compound, the “N-linoleoyl tyrosine level, Mean” value [8] was “BDL”, the “N-nervonoyl valine level, Mean” value [8] was “BDL” and the “N-oleoyl GABA level, Mean” value [8] was 1.69E-11. The “N-oleoyl alanine level, Mean” value [8] was 2.56E-12, the “N-oleoyl dopamine level, Mean” value [8] was “BDL” and the “N-oleoyl ethanolamine level, Mean” value [8] was 3.41E-10. The “N-oleoyl glycine level, Mean” value [8] was 4.95E-13, the “N-oleoyl leucine level, Mean” value [8] was 1.1E-12 and the “N-oleoyl phenylalanine level, Mean” value [8] was 1.49E-12. The “N-oleoyl proline level, Mean” value [8] was “BDL”, the “N-oleoyl serine level, Mean” value [8] was 1.28E-10 and the “N-oleoyl tryptophan level, Mean” value [8] was “BDL”. The “N-oleoyl tyrosine level, Mean” value [8] was 7.3E-13, the “N-oleoyl valine level, Mean” value [8] was 2.38E-14 and the “N-palmitoyl GABA level, Mean” value [8] was 2.91E-11. For the same compound, the “N-palmitoyl alanine level, Mean” value [8] was 1.61E-12, the “N-palmitoyl ethanolamine level, Mean” value [8] was 6.9E-11 and the “N-palmitoyl glycine level, Mean” value [8] was 1.85E-12. For the same compound, the “N-palmitoyl leucine level, Mean” value [8] was 2.19E-12, the “N-palmitoyl methionine level, Mean” value [8] was 2.91E-12 and the “N-palmitoyl phenylalanine level, Mean” value [8] was 1.17E-12. For the same compound, the “N-palmitoyl proline level, Mean” value [8] was “BDL”, the “N-palmitoyl tryptophan level, Mean” value [8] was “BDL” and the “N-palmitoyl tyrosine level, Mean” value [8] was 1.01E-12. The “N-palmitoyl valine level, Mean” value [8] was 1.76E-13, the “N-stearoyl GABA level, Mean” value [8] was 1.9E-11 and the “N-stearoyl alanine level, Mean” value [8] was 2.08E-12. The “N-stearoyl ethanolamine level, Mean” value [8] was 1.35E-11, the “N-stearoyl glycine level, Mean” value [8] was 2.96E-12 and the “N-stearoyl leucine level, Mean” value [8] was 1.09E-12. The “N-stearoyl methionine level, Mean” value [8] was 4.14E-13, the “N-stearoyl phenylalanine level, Mean” value [8] was 7.89E-13 and the “N-stearoyl proline level, Mean” value [8] was “BDL”. For the same compound, the “N-stearoyl serine level, Mean” value [8] was 1.92E-11, the “N-stearoyl tryptophan level, Mean” value [8] was “BDL” and the “Oleic acid level, Mean” value [8] was 4.73E-10. The “PGE2 level, Mean” value [8] was 2.39E-10, the “PhosphoLEA level, Mean” value [8] was 2.38E-11 and the “THC level, Mean” value [8] was “BDL”. The “2-arachidonoyl glycerol, Direction (relative to Veh)” value [9] was “↓”, the “2-arachidonoyl glycerol, Magnitude (x Veh level)” value [9] was 0.80 and the “2-oleoyl glycerol, Direction (relative to Veh)” value [9] was “↓”. The “2-oleoyl glycerol, Magnitude (x Veh level)” value [9] was 0.74, the “Arachidonic acid, Direction (relative to Veh)” value [9] was “↓” and the “Arachidonic acid, Magnitude (x Veh level)” value [9] was 0.78. For the same compound, the “2-linoleoyl glycerol Direction (relative to Veh)” value [10] was “↓”, the “2-linoleoyl glycerol Magnitude (x Veh level)” value [10] was 0.77 and the “phosphoLEA Direction (relative to Veh)” value [10] was “↓”. For the same compound, the “phosphoLEA Magnitude (x Veh level)” value [10] was 0.70, the “N-palmitoyl ethanolamine, Direction (relative to Veh)” value [11] was “↓” and the “N-palmitoyl ethanolamine, Magnitude (x Veh level)” value [11] was 0.82.
